Measurements reported in patent publication US20250176599A1, “FLAVOR COMPOSITION AND FOOD AND BEVERAGE” (TAKASAGO INTERNATIONAL CORPORATION, priority 2021, published 2025).

What was measured:
[1] = Sensory evaluation of aqueous solution I containing (E)-2-nonenal 1 ppb: off-flavor intensity and masking component intensity
Description: (§1) In ion-exchanged water, each degradation component was added to achieve the concentrations listed in Table 1, and aqueous solutions I to VI containing these degradation components were prepared.
(§2) For the aforementioned aqueous solutions containing degradation components, nootkatone was added at the concentrations listed in Table 2 to confirm the intensity of the off-flavor (masking effect) in each sample and the intensity of the masking component itself (the impact on the flavor of the food and/or beverage itself).
(§3) The test was conducted as follows. Eight experienced panelists were selected to conduct a sensory evaluation. The intensity of the off-flavor of the aqueous solution containing the degradation components derived from unsaturated fatty acids, without added masking components, was set as “Evaluation: 4.” The ion-exchanged water free of any degradation components was set as “Evaluation: 0.” The intensity of the off-flavor (masking effect) of each sample was then relatively evaluated according to the following evaluation criteria.
(§4) • Off-flavor is strongly sensed: 4 points • Off-flavor is sensed: 3 points • Off-flavor is slightly sensed: 2 points • Off-flavor is barely sensed: 1 point • Off-flavor is not sensed at all: 0 points
(§5) Also, the intensity of the masking components (impact on the flavor of the food and/or beverage itself) was absolutely evaluated according to the following evaluation criteria.
(§6) • Masking component is strongly sensed: 4 points • Masking component is sensed: 3 points • Masking component is slightly sensed: 2 points • Masking component is barely sensed: 1 point • Masking component is not sensed at all: 0 points

[2] = Sensory evaluation of aqueous solution II containing (E)-2-octenal 10 ppb: off-flavor intensity and masking component intensity
Description: as §1, §2, §3, §4, §5, §6

[3] = Sensory evaluation of aqueous solution III containing 1-octen-3-one 1 ppb: off-flavor intensity and masking component intensity
Description: as §1, §2, §3, §4, §5, §6

[4] = Sensory evaluation of aqueous solution IV containing 1,5-octadien-3-one 100 ppt: off-flavor intensity and masking component intensity
Description: as §1, §2, §3, §4, §5, §6

[5] = Sensory evaluation of aqueous solution V containing 1-octen-3-ol 10 ppb: off-flavor intensity and masking component intensity
Description: as §1, §2, §3, §4, §5, §6

[6] = Sensory evaluation of aqueous solution VI containing 1,5-octadien-3-ol 10 ppb: off-flavor intensity and masking component intensity
Description: as §1, §2, §3, §4, §5, §6

[7] = Overall conclusion of the sensory evaluation across aqueous solutions I to VI
Description: as §1, §2, §3, §4, §5, §6

[8] = 1 ppb added, average panel score
[9] = 1 ppm added, average panel score
[10] = 10 ppb added, average panel score
[11] = 10 ppm added, average panel score
[12] = 50 ppm added, average panel score
[13] = 100 ppb added, average panel score
[14] = 100 ppm added, average panel score
[15] = 100 ppt added, average panel score
[16] = aqueous solution IV, 1 ppb added, average panel score
[17] = aqueous solution IV, 1 ppm added, average panel score
[18] = aqueous solution IV, 10 ppb added, average panel score
[19] = aqueous solution IV, 10 ppm added, average panel score
[20] = aqueous solution IV, 50 ppm added, average panel score
[21] = aqueous solution IV, 100 ppb added, average panel score
[22] = aqueous solution IV, 100 ppm added, average panel score
[23] = aqueous solution IV, 100 ppt added, average panel score
[24] = aqueous solution VI, 1 ppb added, average panel score
[25] = aqueous solution VI, 1 ppm added, average panel score
[26] = aqueous solution VI, 10 ppb added, average panel score
[27] = aqueous solution VI, 10 ppm added, average panel score
[28] = aqueous solution VI, 50 ppm added, average panel score
[29] = aqueous solution VI, 100 ppb added, average panel score
[30] = aqueous solution VI, 100 ppm added, average panel score
[31] = aqueous solution VI, 100 ppt added, average panel score

CC1CCC(C(C)C)C(OCC(O)CO)C1 (stereo not shown) [3-menthoxypropan-1,2-diol]
Masking Component Intensity [1, 8]: 0.3
Off-Flavor Intensity [1, 8]: 3.4
Masking Component Intensity [1, 9]: 1.1
Off-Flavor Intensity [1, 9]: 2.9
Masking Component Intensity [1, 10]: 0.6
Off-Flavor Intensity [1, 10]: 3.1
Masking Component Intensity [1, 11]: 1.9
Off-Flavor Intensity [1, 11]: 2.6
Masking Component Intensity [1, 12]: 2.5
Off-Flavor Intensity [1, 12]: 1.9
Masking Component Intensity [1, 13]: 0.8
Off-Flavor Intensity [1, 13]: 3.1
Masking Component Intensity [1, 14]: 3.3
Off-Flavor Intensity [1, 14]: 1.8
Masking Component Intensity [1, 15]: 0.3
Off-Flavor Intensity [1, 15]: 3.4
Masking Component Intensity [2, 8]: 0.4
Off-Flavor Intensity [2, 8]: 3.0
Masking Component Intensity [2, 9]: 1.4
Off-Flavor Intensity [2, 9]: 2.3
Masking Component Intensity [2, 10]: 0.5
Off-Flavor Intensity [2, 10]: 3.0
Masking Component Intensity [2, 11]: 2.0
Off-Flavor Intensity [2, 11]: 1.8
Masking Component Intensity [2, 12]: 3.1
Off-Flavor Intensity [2, 12]: 1.5
Masking Component Intensity [2, 13]: 1.0
Off-Flavor Intensity [2, 13]: 2.8
Masking Component Intensity [2, 14]: 4.0
Off-Flavor Intensity [2, 14]: 1.1
Masking Component Intensity [2, 15]: 0.4
Off-Flavor Intensity [2, 15]: 3.1
Masking Component Intensity [3, 8]: 0.5
Off-Flavor Intensity [3, 8]: 3.3
Masking Component Intensity [3, 9]: 1.5
Off-Flavor Intensity [3, 9]: 2.5
Masking Component Intensity [3, 10]: 0.6
Off-Flavor Intensity [3, 10]: 2.9
Masking Component Intensity [3, 11]: 2.1
Off-Flavor Intensity [3, 11]: 2.3
Masking Component Intensity [3, 12]: 3.0
Off-Flavor Intensity [3, 12]: 1.9
Masking Component Intensity [3, 13]: 1.1
Off-Flavor Intensity [3, 13]: 2.8
Masking Component Intensity [3, 14]: 3.8
Off-Flavor Intensity [3, 14]: 1.6
Masking Component Intensity [3, 15]: 0.1
Off-Flavor Intensity [3, 15]: 3.3
Masking Component Intensity [4, 16]: 0.0
Off-Flavor Intensity [4, 16]: 3.8
Masking Component Intensity [4, 17]: 1.0
Off-Flavor Intensity [4, 17]: 3.3
Masking Component Intensity [4, 18]: 0.1
Off-Flavor Intensity [4, 18]: 3.5
Masking Component Intensity [4, 19]: 1.5
Off-Flavor Intensity [4, 19]: 2.9
Masking Component Intensity [4, 20]: 2.4
Off-Flavor Intensity [4, 20]: 2.5
Masking Component Intensity [4, 21]: 0.9
Off-Flavor Intensity [4, 21]: 3.5
Masking Component Intensity [4, 22]: 3.0
Off-Flavor Intensity [4, 22]: 2.1
Masking Component Intensity [4, 23]: 0.0
Off-Flavor Intensity [4, 23]: 3.9
Masking Component Intensity [5, 8]: 0.3
Off-Flavor Intensity [5, 8]: 3.1
Masking Component Intensity [5, 9]: 1.4
Off-Flavor Intensity [5, 9]: 2.6
Masking Component Intensity [5, 10]: 0.6
Off-Flavor Intensity [5, 10]: 2.6
Masking Component Intensity [5, 11]: 2.1
Off-Flavor Intensity [5, 11]: 2.0
Masking Component Intensity [5, 12]: 2.0
Off-Flavor Intensity [5, 12]: 1.6
Masking Component Intensity [5, 13]: 1.0
Off-Flavor Intensity [5, 13]: 2.5
Masking Component Intensity [5, 14]: 3.8
Off-Flavor Intensity [5, 14]: 1.4
Masking Component Intensity [5, 15]: 0.3
Off-Flavor Intensity [5, 15]: 3.3
Masking Component Intensity [6, 24]: 0.1
Off-Flavor Intensity [6, 24]: 3.0
Masking Component Intensity [6, 25]: 0.8
Off-Flavor Intensity [6, 25]: 2.6
Masking Component Intensity [6, 26]: 0.4
Off-Flavor Intensity [6, 26]: 3.0
Masking Component Intensity [6, 27]: 2.0
Off-Flavor Intensity [6, 27]: 2.3
Masking Component Intensity [6, 28]: 2.9
Off-Flavor Intensity [6, 28]: 1.9
Masking Component Intensity [6, 29]: 0.4
Off-Flavor Intensity [6, 29]: 3.0
Masking Component Intensity [6, 30]: 3.5
Off-Flavor Intensity [6, 30]: 1.3
Masking Component Intensity [6, 31]: 0.0
Off-Flavor Intensity [6, 31]: 3.0
concentration that masks the off-flavor and does not affect the flavor of the food and/or beverage itself, lower limit [7]: ≥ 100 ppt
concentration that masks the off-flavor and does not affect the flavor of the food and/or beverage itself, upper limit [7]: ≤ 100 ppm

CCCC(=O)C(C)=O [2,3-Hexanedione, 2,3-hexanedione]
Off-Flavor Intensity ([1]; 1 ppb added, (E)-2-nonenal 1 ppb, average score 0-4): 3.4 points
Off-Flavor Intensity ([1]; 1 ppm added, (E)-2-nonenal 1 ppb, average score 0-4): 1.6 points
Off-Flavor Intensity ([1]; 5 ppb added, (E)-2-nonenal 1 ppb, average score 0-4): 3.4 points
Off-Flavor Intensity ([1]; 5 ppm added, (E)-2-nonenal 1 ppb, average score 0-4): 1.1 points
Off-Flavor Intensity ([1]; 10 ppb added, (E)-2-nonenal 1 ppb, average score 0-4): 3.3 points
Off-Flavor Intensity ([1]; 10 ppm added, (E)-2-nonenal 1 ppb, average score 0-4): 0.9 points
Off-Flavor Intensity ([1]; 50 ppb added, (E)-2-nonenal 1 ppb, average score 0-4): 2.6 points
Off-Flavor Intensity ([1]; 100 ppb added, (E)-2-nonenal 1 ppb, average score 0-4): 2.4 points
Off-Flavor Intensity ([1]; 500 ppb added, (E)-2-nonenal 1 ppb, average score 0-4): 2.0 points
Off-Flavor Intensity ([2]; 1 ppb added, (E)-2-octenal 10 ppb, average score 0-4): 3.0 points
Off-Flavor Intensity ([2]; 1 ppm added, (E)-2-octenal 10 ppb, average score 0-4): 2.0 points
Off-Flavor Intensity ([2]; 5 ppb added, (E)-2-octenal 10 ppb, average score 0-4): 3.0 points
Off-Flavor Intensity ([2]; 5 ppm added, (E)-2-octenal 10 ppb, average score 0-4): 1.4 points
Off-Flavor Intensity ([2]; 10 ppb added, (E)-2-octenal 10 ppb, average score 0-4): 2.6 points
Off-Flavor Intensity ([2]; 10 ppm added, (E)-2-octenal 10 ppb, average score 0-4): 1.0 points
Off-Flavor Intensity ([2]; 50 ppb added, (E)-2-octenal 10 ppb, average score 0-4): 2.5 points
Off-Flavor Intensity ([2]; 100 ppb added, (E)-2-octenal 10 ppb, average score 0-4): 2.0 points
Off-Flavor Intensity ([2]; 500 ppb added, (E)-2-octenal 10 ppb, average score 0-4): 2.0 points
Off-Flavor Intensity ([3]; 1 ppb added, 1-octen-3-one 1 ppb, average score 0-4): 4.0 points
Off-Flavor Intensity ([3]; 1 ppm added, 1-octen-3-one 1 ppb, average score 0-4): 2.3 points
Off-Flavor Intensity ([3]; 5 ppb added, 1-octen-3-one 1 ppb, average score 0-4): 3.9 points
Off-Flavor Intensity ([3]; 5 ppm added, 1-octen-3-one 1 ppb, average score 0-4): 1.8 points
Off-Flavor Intensity ([3]; 10 ppb added, 1-octen-3-one 1 ppb, average score 0-4): 3.6 points
Off-Flavor Intensity ([3]; 10 ppm added, 1-octen-3-one 1 ppb, average score 0-4): 1.5 points
Off-Flavor Intensity ([3]; 50 ppb added, 1-octen-3-one 1 ppb, average score 0-4): 3.4 points
Off-Flavor Intensity ([3]; 100 ppb added, 1-octen-3-one 1 ppb, average score 0-4): 3.0 points
Off-Flavor Intensity ([3]; 500 ppb added, 1-octen-3-one 1 ppb, average score 0-4): 2.5 points
Off-Flavor Intensity ([4]; 1 ppb added, aqueous solution IV, 1,5-octadien-3-one 100 ppt, average score 0-4): 3.6 points
Off-Flavor Intensity ([4]; 1 ppm added, aqueous solution IV, 1,5-octadien-3-one 100 ppt, average score 0-4): 2.1 points
Off-Flavor Intensity ([4]; 5 ppb added, aqueous solution IV, 1,5-octadien-3-one 100 ppt, average score 0-4): 3.5 points
Off-Flavor Intensity ([4]; 5 ppm added, aqueous solution IV, 1,5-octadien-3-one 100 ppt, average score 0-4): 1.5 points
Off-Flavor Intensity ([4]; 10 ppb added, aqueous solution IV, 1,5-octadien-3-one 100 ppt, average score 0-4): 3.4 points
Off-Flavor Intensity ([4]; 10 ppm added, aqueous solution IV, 1,5-octadien-3-one 100 ppt, average score 0-4): 0.8 points
Off-Flavor Intensity ([4]; 50 ppb added, aqueous solution IV, 1,5-octadien-3-one 100 ppt, average score 0-4): 2.9 points
Off-Flavor Intensity ([4]; 100 ppb added, aqueous solution IV, 1,5-octadien-3-one 100 ppt, average score 0-4): 2.9 points
Off-Flavor Intensity ([4]; 500 ppb added, aqueous solution IV, 1,5-octadien-3-one 100 ppt, average score 0-4): 2.6 points
Off-Flavor Intensity ([5]; 1 ppb added, 1-octen-3-ol 10 ppb, average score 0-4): 3.1 points
Off-Flavor Intensity ([5]; 1 ppm added, 1-octen-3-ol 10 ppb, average score 0-4): 1.5 points
Off-Flavor Intensity ([5]; 5 ppb added, 1-octen-3-ol 10 ppb, average score 0-4): 2.9 points
Off-Flavor Intensity ([5]; 5 ppm added, 1-octen-3-ol 10 ppb, average score 0-4): 0.9 points
Off-Flavor Intensity ([5]; 10 ppb added, 1-octen-3-ol 10 ppb, average score 0-4): 2.5 points
Off-Flavor Intensity ([5]; 10 ppm added, 1-octen-3-ol 10 ppb, average score 0-4): 0.4 points
Off-Flavor Intensity ([5]; 50 ppb added, 1-octen-3-ol 10 ppb, average score 0-4): 2.3 points
Off-Flavor Intensity ([5]; 100 ppb added, 1-octen-3-ol 10 ppb, average score 0-4): 2.0 points
Off-Flavor Intensity ([5]; 500 ppb added, 1-octen-3-ol 10 ppb, average score 0-4): 1.8 points
Off-Flavor Intensity ([6]; 1 ppb added, aqueous solution VI, 1,5-octadien-3-ol 10 ppb, average score 0-4): 3.4 points
Off-Flavor Intensity ([6]; 1 ppm added, aqueous solution VI, 1,5-octadien-3-ol 10 ppb, average score 0-4): 1.6 points
Off-Flavor Intensity ([6]; 5 ppb added, aqueous solution VI, 1,5-octadien-3-ol 10 ppb, average score 0-4): 3.4 points
Off-Flavor Intensity ([6]; 5 ppm added, aqueous solution VI, 1,5-octadien-3-ol 10 ppb, average score 0-4): 1.0 points
Off-Flavor Intensity ([6]; 10 ppb added, aqueous solution VI, 1,5-octadien-3-ol 10 ppb, average score 0-4): 3.0 points
Off-Flavor Intensity ([6]; 10 ppm added, aqueous solution VI, 1,5-octadien-3-ol 10 ppb, average score 0-4): 0.5 points
Off-Flavor Intensity ([6]; 50 ppb added, aqueous solution VI, 1,5-octadien-3-ol 10 ppb, average score 0-4): 2.8 points
Off-Flavor Intensity ([6]; 100 ppb added, aqueous solution VI, 1,5-octadien-3-ol 10 ppb, average score 0-4): 2.6 points
Off-Flavor Intensity ([6]; 500 ppb added, aqueous solution VI, 1,5-octadien-3-ol 10 ppb, average score 0-4): 2.1 points
concentration that masks the off-flavor and does not affect the flavor of the food and/or beverage itself, lower limit [7]: ≥ 1 ppb
concentration that masks the off-flavor and does not affect the flavor of the food and/or beverage itself, upper limit [7]: ≤ 1 ppm
